Test results reported in patent US9636377B2, “Compositions and methods for the treatment of retinal degeneration” (UNIVERSITE DE STRASBOURG, priority 2012, dated 2017).

Legend:
[1] = tested on: Bbs12 depleted retinal explants (photoreceptor apoptosis, ONL); test: TUNEL assay, apoptotic rate of photoreceptors in shRNA-treated retinal explants; assay type: cell-based, mouse; conditions: for apoptotic rate (proportion of apoptotic photoreceptor nucleus): shBbs12 explants, single treatments 2 mM VPA, 25 μM GBZ, 10 μM INH, 33% without treatment
Method: (§1) Wild-type animals were on a C57BL/6 background. The retinal explant culture procedure was carried out as previously described (Reidel et al., 2006). Briefly, 15-day-old mice were sacrificed by decapitation and eyes were removed and incubated in trypsin (catalog #25200-072, Gibco, Invitrogen, Paris, France) for 10 min at 37° C. Digestion was stopped by transferring eyes in DMEM+10% fetal bovine serum (catalog #31885-023 and 10500-064, Gibco) and incubation for 10 min at 4° C. Eyes were dissected in Ame's medium (catalog#15230-097, Gibco) supplemented with 6.5 g/L glucose. First, the sclera was carefully removed, leaving the retinal pigmented epithelium (RPE) attached to the eyeball. Incisions were made at the edge of the cornea to remove the cornea, lens and hyaloid body. Then four radial incisions were made in the retina to obtain a cross shape. Retinas were transferred on a nitrocellulose culture membrane (catalog # PICMORG50, Millipore, Molsheim, France) with RPE side down and cultivated in Neurobasal A medium (catalog #108888-022, Gibco) supplemented with B27 supplement (catalog #17504-044, Gibco), L-glutamine (catalog #35050-061, Gibco) and penicillin/streptomycin (catalog #15240; Gibco). Explants were maintained at 37° C. humidified 5% CO2. Specific gene silencing using lentiviruses carrying shRNA sequences for Bbs12, Perk, Hri or Rhodopsin (Santa Cruz Biotechnology, Tebu Bio, Yvelines, France) were performed by adding 20 μl of viral suspension (1×10^5 infectious units) in the culture medium overnight before whole medium change. The infected explants were then cultured for 3 days with a half medium change on a daily basis. Explants were not maintained longer in culture to avoid unspecific apoptosis in the different retinal layers. […] Drugs were added simultaneously with viral infection to the culture medium.
For immunofluorescence experiments and TUNEL assay retinal explants were fixed directly on membranes with Formalin 10% for 1 hour at 4° C. Sucrose impregnation was then performed using 10%, 20% and 30% sucrose baths, 20 min each. Explants were transferred to OCT (catalog #4583, Tissue-Tek, Sakura, Villeneuve d′Ascq, France) in mold and frozen in liquid nitrogen. 8 μm thin cryosections were mounted on StarFrost slides (catalog # VS1117, Waldemar Knittel Glasbearbeitungs, Braunschweig, Germany).
Sections or cells were washed with PBS 1× and shortly fixated with Formalin 10% solution for 5 minutes and washed three times with PBS 1×. […] The prevalence of apoptotic nuclei was expressed as the ratio of TUNEL-positive nuclei and DAPI-stained nuclei in three different areas of the ONL per experiment. […]

[2] = tested on: RP patients; conditions: RP patients treated for 2 or 4 months; cited from earlier work
[3] = tested on: rat retina; conditions: ischemia-reperfusion injury, systemic administration; cited from earlier work
[4] = tested on: Bbs12−/− mouse retina; test: Retinal histology (ONL thickness, cilia) of treated Bbs12−/− mice; assay type: in vivo; conditions: for ONL layer thickness: 4 weeks of age, 37 μm for untreated retinas
Method: The Bbs12^−/− mice were generated as previously described. Bbs12^−/− mice were obtained by crossing heterozygote animals. Mice were housed in humidity and temperature controlled rooms on a 12-hour light/12-hour dark cycle with food ad libitum and water. For anti-apoptotic treatments, animals were treated with eye drops from 2 to 4 weeks of age once a day; the eye drops contain GBZ 7.5 μM and Caspase Inhibitor 500 μM for the left eye and contain 5% DMSO for the right eye. […] Eye drop treatment was achieved from 2 to 4 weeks of age and systemic treatments were achieved from 3 to 4 weeks of age. At 4 weeks of age, electrophysiological analyses were performed and the retinas were harvested for molecular analysis. Sections or cells were washed with PBS 1× and shortly fixated with Formalin 10% solution for 5 minutes and washed three times with PBS 1×. The sections were then pre-incubated with Teng-T (10 mM TrisHCl (pH=7.6), 5 mM EDTA (catalog # E5768, Sigma-Aldrich), 150 mM NaCl, 0.25% gelatin (catalog # G9391, Sigma-Aldrich), 0.05% Tween-20)/10% normal goat serum (catalog #PCN5000, Gibco) for 30 min, followed by an overnight incubation with the primary antibody diluted in Teng-T/10% NGS at 4° C. Slides were then washed with PBS 1× and incubated with the indicated secondary antibody in Teng-T/10% NGS for 1 hour at room temperature. Slides were washed in PBS 1× and nuclear staining was performed with DAPI (catalog # D1306, Invitrogen). Slides were mounted with Immumount (catalog #9990402, ThermoFisher). TUNEL assays were performed using In Situ Cell Death Detection Kit (catalog #11684795910, Roche) according to suppliers' protocol. The prevalence of apoptotic nuclei was expressed as the ratio of TUNEL-positive nuclei and DAPI-stained nuclei in three different areas of the ONL per experiment. All results shown are representative of at least 3 separate experiments.

[5] = tested on: Bip, Chop10 and Caspase12 mRNA; test: mRNA expression of ER stress genes in retinal explants (quantitative PCR); assay type: cell-based, mouse
Method: as §1
Total RNA was extracted with Trizol (catalog #15596-018, Invitrogen). […] was DNAse treated using TURBO DNA-free Kit (catalog # AM1907, Applied Biosystems, Villebon-sur-Yvette, France) and then reverse transcribed using the iScript cDNA synthesis kit (catalog #170-8891, BioRad, Marne-la-coquette, France). Primers (listed in supplementary methods) were purchased from Qiagen, Courtaboeuf, France. Quantitative PCR were performed using SYBR Green PCR Mix (catalog #4367659, Applied Biosystems) on a BioRad CFX96 system. mRNA expressions were expressed as relative to Gapdh RNA content, using BioRad CFX manager software. For endoplasmic reticulum stress arrays, Custom TaqMan Array 96 was purchased for Applied Biosystems; all tested genes are listed in supplementary methods.

[6] = control conditions (shCtl explants)

SMILES	apoptotic rate (proportion of apoptotic photoreceptor nucleus) [1] [%]	apoptotic rate ([1]; shCtl explants, 2 mM VPA, TUNEL-positive nuclei/DAPI in ONL) [%]	visual field [2]	BiP expression [3]	caspase-12 activation [3]	protective effect on photoreceptors, overall in vivo (electrophysiological and histological analysis) [4]	ONL layer thickness [4] [μm]	Bip mRNA expression ([5]; after Bbs12 depletion)	Caspase12 mRNA expression ([5]; after Bbs12 depletion)	Chop10 mRNA expression ([5]; after Bbs12 depletion)	Bip mRNA expression [5, 6]	Caspase12 mRNA expression [5, 6]	Chop10 mRNA expression [5, 6]
CCCC(CCC)C(=O)O [VPA, valproic acid]	17	13	increase of visual field in 5 to 7 patients	increased	reduced	efficient to reduce photoreceptor apoptosis	44	lower	lower	lower	twofold increase	not significantly changed	not significantly changed
N=C(N)N/N=C/c1c(Cl)cccc1Cl [GBZ, guanabenz]	12	–	–	–	–	efficient to reduce photoreceptor apoptosis	45	decreased	decreased	decreased	–	–	–
